Results published in paper PMC10873978, “Novel tetrahydroisoquinolines as DHFR and CDK2 inhibitors: synthesis, characterization, anticancer activity and antioxidant properties” (BMC Chemistry, 2024).
Entries after “also recorded” stand apart in the source; their conditions may differ.

What was measured:
[1] = system: A549 cell line; experiment: In vitro cytotoxic activity, MTT method, A549; conditions: for IC50: Homo sapiens, read-out: IC50 ± SD
Method: (§1) Cell lines: The in vitro human breast cancerous cell line (MCF7), lung cancerous cell lines (A549) and normal cell lines were purchased from Serum and Vaccine formulation in Cairo-Egypt.
(§2) In vitro cytotoxic activity of all synthesized compounds against two human breast cell line (MCF7) and lung cell lines (A549) was evaluated according to the MTT method. Firstly, Growth the cell line medium in 96 well tissue culture plate was injected with 10^5 cells/mL (100 uL/plate well) of the cell line and incubated at 37 °C for 24 h to develop a monolayer sheet then the formed growth medium was poured from 96 well microtiter plates after the confluent sheet of cells. […] Secondly, add 0.1 mL of each concentration tetrahydroisoquinoline sample to each plate. The plates were incubated at 37 °C. Thirdly MTT solution (5 mg/mL in PBS) is prepared. Add 20 µL of MTT solution to each well plates. And shaking in 150 rpm for 5 min, to mix the MTT into the media. Then incubate at (37 °C, 5% CO2) for 1–5 h. Finally read the optical density at 560 nm and subtract background at 620 nm.
(§3) In this work, doxorubicin was used as a positive control drug for comparison with the synthesized compounds under the same experimental conditions.

[2] = system: MCF7 cell line; experiment: In vitro cytotoxic activity, MTT method, MCF7; type: cell-based, human; conditions: for IC50: Homo sapiens, MCF7, MCF7 cell line, MTT
Method: as §1, §2, §3

[3] = DPPH scavenging antioxidant activity; conditions: for antioxidant activity compared with Vitamin C: DPPH
Method: The antioxidant activity of ten compounds was determined using DPPH [32–34]. A solution 1: prepared by dissolving DPPH (0.002 g) in ethanol (50 mL etnanol). Solution 2: prepared by dissolving different weights 0.05, 0.01 g of each sample in 1 mL of DMSO then take 10 µL of each sample solution with 1 mL ethanol. Then mix 1 mL of solution 1 with 1 mL of solution 2 then vortex the resulting mixture in the dark for about 30 min. The absorbance of the mixture was measured by spectrophotometer at λmax = 517 nm against blank 1 mL absolute ethanol and compared to the ascorbic acid (Vitamin C).
Ten newly synthesized compounds were studied as in vitro antioxidants by measuring of their DPPH scavenging activity which is represented as a percentage % [32]^. Results are represented by mean ± SD of three replicates. […] The higher dose concentration of 0.05 μg/mL represents higher antioxidant activity. […] The high antioxidant activity is referred to the presence of C=O, NH2, and OH groups like ascorbic acid which can be easily oxidized and reduced and can be used as antioxidant drugs. (Fig. 8 and Table 9).

SMILES: CC(=O)C1C(c2ccc(N(C)C)cc2)c2c(C)nc(SCC#N)c(C#N)c2CC1(C)O (stereo not shown) [Compound 6, 2-[(7-Acetyl-4-cyano-1,6-dimethyl-6-hydroxy-8-(4-N,N-dimethylamino-phenyl)-5,6,7,8-tetrahydroisoquinolin-3-yl)thio]acetonitrile]
- Viability % ([1]; A549, Conc. 0.0487 µMol): 99.7%
- Toxicity % ([1]; A549, Conc. 0.0975 µMol): 0.50%
- Viability % ([1]; A549, Conc. 0.0975 µMol): 99.5%
- Toxicity % ([1]; A549, Conc. 0.195 µMol): 0.6312%
- Viability % ([1]; A549, Conc. 0.195 µMol): 99.37%
- Toxicity % ([1]; A549, Conc. 0.391 µMol): 1.46%
- Viability % ([1]; A549, Conc. 0.391 µMol): 98.54%
- Toxicity % ([1]; A549, Conc. 0.781 µMol): 15.46%
- Viability % ([1]; A549, Conc. 0.781 µMol): 84.54%
- Toxicity % ([1]; A549, Conc. 1.562 µMol): 29.7%
- Viability % ([1]; A549, Conc. 1.562 µMol): 70.3%
- Toxicity % ([1]; A549, Conc. 3.125 µMol): 43.83%
- Viability % ([1]; A549, Conc. 3.125 µMol): 56.17%
- Toxicity % ([1]; A549, Conc. 6.25 µMol): 74.71%
- Viability % ([1]; A549, Conc. 6.25 µMol): 25.29%
- Toxicity % ([1]; A549, Conc. 12.5 µMol): 88.52%
- Viability % ([1]; A549, Conc. 12.5 µMol): 11.48%
- Toxicity % ([1]; A549, Conc. 25 µMol): 96.29%
- Viability % ([1]; A549, Conc. 25 µMol): 3.708%
- IC50 [1]: 3736 ± 2 nM
- IC50 [2]: 329 ± 5 nM
- Viability % ([2]; MCF7, 0.0487 µMol): 80.118%
- Toxicity % ([2]; MCF7, 0.0975 µMol): 25.5567%
- Viability % ([2]; MCF7, 0.0975 µMol): 74.5543%
- Toxicity % ([2]; MCF7, 0.195 µMol): 38.24%
- Viability % ([2]; MCF7, 0.195 µMol): 61.76%
- Toxicity % ([2]; MCF7, 0.391 µMol): 59.68%
- Viability % ([2]; MCF7, 0.391 µMol): 40.32%
- Toxicity % ([2]; MCF7, 0.781 µMol): 70.71%
- Viability % ([2]; MCF7, 0.781 µMol): 29.29%
- Toxicity % ([2]; MCF7, 1.562 µMol): 76.35%
- Viability % ([2]; MCF7, 1.562 µMol): 23.65%
- Toxicity % ([2]; MCF7, 3.125 µMol): 85.7%
- Viability % ([2]; MCF7, 3.125 µMol): 14.3%
- Toxicity % ([2]; MCF7, 6.25 µMol): 93.38%
- Viability % ([2]; MCF7, 6.25 µMol): 6.618%
- Toxicity % ([2]; MCF7, 12.5 µMol): 97.14%
- Viability % ([2]; MCF7, 12.5 µMol): 2.859%
- Toxicity % ([2]; MCF7, 25 µMol): 97.34%
- Viability % ([2]; MCF7, 25 µMol): 2.655%
- DPPH scavenging, inhibition (%) ([3]; 0.01 µg/mL): 69.67 ± 5.65%
- DPPH scavenging, inhibition (%) ([3]; 0.05 µg/mL): 83.72 ± 4.08%
- antioxidant activity compared with Vitamin C [3]: higher result than Vitamin C; also recorded: higher antioxidant activity than Vitamin C

SMILES: CC(=O)C1C(c2ccc(N(C)C)cc2)c2c(C)[nH]c(=S)c(C#N)c2CC1(C)O (stereo not shown) [Compound 1, 7-Acetyl-4-cyano-1,6-dimethyl-6-hydroxy-8-(4-N,N-dimethylaminophenyl)-5,6,7,8-tetrahydroisoquinoline-3(2H)-thione]
- Toxicity % ([1]; A549, Conc. 0.0487 µMol): 1%
- Viability % ([1]; A549, Conc. 0.0487 µMol): 99%
- Viability % ([1]; A549, Conc. 0.0975 µMol): 98.2%
- Toxicity % ([1]; A549, Conc. 0.195 µMol): 3%
- Viability % ([1]; A549, Conc. 0.195 µMol): 97%
- Toxicity % ([1]; A549, Conc. 0.391 µMol): 7.89%
- Viability % ([1]; A549, Conc. 0.391 µMol): 92.11%
- Toxicity % ([1]; A549, Conc. 0.781 µMol): 21.85%
- Viability % ([1]; A549, Conc. 0.781 µMol): 78.15%
- Toxicity % ([1]; A549, Conc. 1.562 µMol): 34.99%
- Viability % ([1]; A549, Conc. 1.562 µMol): 65.01%
- Toxicity % ([1]; A549, Conc. 3.125 µMol): 59.76%
- Viability % ([1]; A549, Conc. 3.125 µMol): 40.24%
- Toxicity % ([1]; A549, Conc. 6.25 µMol): 76.21%
- Viability % ([1]; A549, Conc. 6.25 µMol): 23.79%
- Toxicity % ([1]; A549, Conc. 12.5 µMol): 90.77%
- Viability % ([1]; A549, Conc. 12.5 µMol): 9.231%
- Toxicity % ([1]; A549, Conc. 25 µMol): 96.84%
- Viability % ([1]; A549, Conc. 25 µMol): 3.156%
- IC50 [1]: 2219 ± 2 nM
- IC50 [2]: 1857 ± 8 nM
- Toxicity % ([2]; MCF7, 0.0487 µMol): 0.2745%
- Viability % ([2]; MCF7, 0.0487 µMol): 99.73%
- Toxicity % ([2]; MCF7, 0.0975 µMol): 0.3246%
- Viability % ([2]; MCF7, 0.0975 µMol): 99.68%
- Toxicity % ([2]; MCF7, 0.195 µMol): 0.4493%
- Viability % ([2]; MCF7, 0.195 µMol): 99.55%
- Viability % ([2]; MCF7, 0.391 µMol): 91.95%
- Toxicity % ([2]; MCF7, 0.781 µMol): 23.53%
- Viability % ([2]; MCF7, 0.781 µMol): 76.47%
- Toxicity % ([2]; MCF7, 1.562 µMol): 46.08%
- Viability % ([2]; MCF7, 1.562 µMol): 53.92%
- Toxicity % ([2]; MCF7, 3.125 µMol): 76.35%
- Viability % ([2]; MCF7, 3.125 µMol): 23.65%
- Toxicity % ([2]; MCF7, 6.25 µMol): 86.93%
- Viability % ([2]; MCF7, 6.25 µMol): 13.07%
- Toxicity % ([2]; MCF7, 12.5 µMol): 93.63%
- Viability % ([2]; MCF7, 12.5 µMol): 6.373%
- Toxicity % ([2]; MCF7, 25 µMol): 97.3%
- Viability % ([2]; MCF7, 25 µMol): 2.696%
- DPPH scavenging, inhibition (%) ([3]; 0.01 µg/mL): 61.01 ± 0.58%
- DPPH scavenging, inhibition (%) ([3]; 0.05 µg/mL): 92.3 ± 0.44%
- antioxidant activity compared with Vitamin C [3]: higher result than Vitamin C; also recorded: higher antioxidant activity than Vitamin C

SMILES: CC(=O)c1ccc(NC(=O)CSc2nc(C)c3c(c2C#N)CC(C)(O)C(C(C)=O)C3c2ccc(N(C)C)cc2)cc1 (stereo not shown) [Compound 7d, 2-[(7-Acetyl-4-cyano-1,6-dimethyl-6-hydroxy-8-(4-N,N-dimethylamino-phenyl)-5,6,7,8-tetrahydroisoquinolin-3-yl)thio]-N-(4-acetylphenyl)acetamide]
- Toxicity % ([1]; A549, Conc. 0.04875 µMol): 1.982%
- Viability % ([1]; A549, Conc. 0.04875 µMol): 98.02%
- Toxicity % ([1]; A549, Conc. 0.0975 µMol): 2.4569%
- Viability % ([1]; A549, Conc. 0.0975 µMol): 97.5431%
- Toxicity % ([1]; A549, Conc. 0.195 µMol): 3.708%
- Viability % ([1]; A549, Conc. 0.195 µMol): 96.29%
- Toxicity % ([1]; A549, Conc. 0.391 µMol): 36.8%
- Viability % ([1]; A549, Conc. 0.391 µMol): 63.2%
- Toxicity % ([1]; A549, Conc. 0.781 µMol): 53.89%
- Viability % ([1]; A549, Conc. 0.781 µMol): 46.11%
- Toxicity % ([1]; A549, Conc. 1.562 µMol): 70.45%
- Viability % ([1]; A549, Conc. 1.562 µMol): 29.55%
- Toxicity % ([1]; A549, Conc. 3.125 µMol): 77.08%
- Viability % ([1]; A549, Conc. 3.125 µMol): 22.92%
- Toxicity % ([1]; A549, Conc. 6.25 µMol): 86.79%
- Viability % ([1]; A549, Conc. 6.25 µMol): 13.21%
- Toxicity % ([1]; A549, Conc. 12.5 µMol): 92.98%
- Viability % ([1]; A549, Conc. 12.5 µMol): 7.022%
- Toxicity % ([1]; A549, Conc. 25 µMol): 96.61%
- Viability % ([1]; A549, Conc. 25 µMol): 3.393%
- IC50 [1]: 446 ± 4 nM
- IC50 [2]: 495 ± 2 nM
- Toxicity % ([2]; MCF7, 0.0487 µMol): 1.8855%
- Viability % ([2]; MCF7, 0.0487 µMol): 98.2255%
- Toxicity % ([2]; MCF7, 0.0975 µMol): 3.5566%
- Viability % ([2]; MCF7, 0.0975 µMol): 96.5544%
- Toxicity % ([2]; MCF7, 0.195 µMol): 5.106%
- Viability % ([2]; MCF7, 0.195 µMol): 94.89%
- Toxicity % ([2]; MCF7, 0.391 µMol): 28.72%
- Viability % ([2]; MCF7, 0.391 µMol): 71.28%
- Toxicity % ([2]; MCF7, 0.781 µMol): 52.53%
- Viability % ([2]; MCF7, 0.781 µMol): 47.47%
- Toxicity % ([2]; MCF7, 1.562 µMol): 65.69%
- Viability % ([2]; MCF7, 1.562 µMol): 34.31%
- Toxicity % ([2]; MCF7, 3.125 µMol): 76.63%
- Viability % ([2]; MCF7, 3.125 µMol): 23.37%
- Toxicity % ([2]; MCF7, 6.25 µMol): 94.04%
- Viability % ([2]; MCF7, 6.25 µMol): 5.964%
- Toxicity % ([2]; MCF7, 12.5 µMol): 96.65%
- Viability % ([2]; MCF7, 12.5 µMol): 3.35%
- Toxicity % ([2]; MCF7, 25 µMol): 96.73%
- Viability % ([2]; MCF7, 25 µMol): 3.268%
- DPPH scavenging, inhibition (%) ([3]; 0.01 µg/mL): 48.08 ± 0.87%
- DPPH scavenging, inhibition (%) ([3]; 0.05 µg/mL): 69.73 ± 0.73%
